Entries after “also recorded” stand apart in the source; their conditions may differ.
Assays:
SIK3 = SIK3 (Homo sapiens, UniProt Q9Y2K2); assay: CRTC2 activity as a measure of SIK3 inhibitory activity; type: cell-based; settings: 150 μM
Description: Comparative evaluation of pterosin derivatives was performed in terms of the inhibitory effect on SIK3 signaling. As a measure of the SIK3 inhibitory activity, the induced activity of the transcription coupling factor CRTC2 (which is also referred to as TORC2, serves as a coupling factor of the transcription factor CREB, and is an inhibition target of SIK3) was measured according to the method described in PCT/JP2012/063709.

human chondrocytes [1] = assay: quantitative RT-PCR in pellet-cultured human primary chondrocytes; type: cell-based; settings: 300 μM, pellet culture 2 weeks
Description: (§1) Chondrocytes collected from a person with medial compartmental idiopathic osteonecrosis under informed consent were cultured in DMEM (Dulbecco's Modified Eagle's Medium) supplemented with 10% fetal calf serum for 7 days (an image of a 3-day culture is shown in FIG. 5A), and then pelletized by centrifugation (FIG. 5A). The human chondrocyte pellet was cultured in DMEM supplemented with 10% fetal calf serum and 300 μM of the extracted pterosin B for 14 or 28 days. The cell pellet was collected and then stained with safranin O. As a result, it was shown that the staining intensity in the presence of the extracted pterosin B was increased on and after 14 days from the addition of the extracted pterosin B (FIG. 5B). In addition, the mRNA amounts of COL2A1, COL11A2, ACAN, SOX9, COL10A1 and COL1A1 relative to GAPDH in the cell pellet were measured by quantitative RT-PCR. As a result, the mRNA amounts of COL2A1, COL11A2, ACAN and SOX9 were increased by the addition of the […] pterosin B, while the mRNA amounts of COL10A1 and COL1A1 were decreased by the addition of the extracted pterosin B (FIG. 6). […] Therefore, pterosin B is considered to have the effect of promoting hyaline cartilage growth in humans as well.

[2] = tested on: embryonic mouse metatarsal bone; assay: tissue culture of embryonic mouse metatarsal bone, safranin O, BrdU and Col10a1 staining; type: cell-based; settings: 300 μM, 7 days
Description: The metatarsal bone was isolated from a mouse embryo of E15.5, and tissue culture of the bone was performed in DMEM supplemented with 10% fetal calf serum. To the culture medium, 300 μM of the extracted pterosin B or the synthesized pterosin B was added, and the culture was further continued. Seven days later, the metatarsal bone was collected and its histological sections were prepared. At 8 hours before the collection of the metatarsal bone, BrdU was added to the culture medium. The histological sections of the metatarsal bone were stained with safranin O and immunostained with an anti-BrdU antibody. As a result, it was shown that, in the presence of the extracted pterosin B or the synthesized pterosin B, the safranin O-stained area and the BrdU-positive cell number were increased (FIGS. 2 and 3). Meanwhile, the number of hypertrophic chondrocytes was decreased in the presence of the extracted pterosin B or the synthesized pterosin B (FIG. 4).

[3] = tested on: mouse primary chondrocytes; assay: safranin O staining of pellet-cultured mouse primary chondrocytes; type: cell-based; settings: cell pellet, 100, 200 or 300 μM, 28 days after addition
Description: (§2) Primary chondrocytes obtained from the distal femoral epiphyseal cartilage and the proximal tibial epiphyseal cartilage of 1- to 5-day-old mice were pelletized by centrifugation, and to the cell pellet, the extracted pterosin B at a given concentration (0 μM (only DMSO as a vehicle), 100 μM, 200 μM or 300 μM) was added in DMEM supplemented with 10% fetal calf serum. […] In addition, the mRNA amounts of Col2a1, Col10a1 and Sik3 relative to Gapdh in the cell pellet were measured by quantitative RT-PCR. […] Col2a1 is a gene relevant to […], and Col10a1 is a gene indicative of hypertrophic differentiation of chondrocytes.

human chondrocytes [4] = assay: safranin O staining of pellet-cultured human primary chondrocytes; type: cell-based; settings: 300 μM, on and after 14 days (14 or 28 days)
Description: as §1

[5] = tested on: mouse primary chondrocytes; assay: quantitative RT-PCR in pellet-cultured mouse primary chondrocytes; type: cell-based; settings: for mRNA amount of Col10a1 relative to Gapdh: cell pellet, 300 μM, 2 or 4 weeks after addition
Description: as §2
In the same manner as in Example 1, primary chondrocytes obtained from 1- to 5-day-old mice were pelletized, and to the cell pellet, a pterosin derivative (synthesized pterosin B or pterosin Z) at 300 μM was added in DMEM supplemented with 10% fetal calf serum. At 2 or 4 weeks after the addition, the cell pellet was collected and the mRNA amount of Col10a1 relative to Gapdh was measured by quantitative RT-PCR. As a result, it was shown that Col10a1 was decreased by the addition of pterosin Z as well as the addition of the synthesized pterosin B (FIG. 9).

[6] = tested on: articular cartilage on the medial femoral epicondyle; assay: intra-articular administration into the knee of C57BL/6 mice, articular cartilage histology; type: in vivo, mouse; settings: 3 times a week, 4 weeks
Source text: After the administration was continued for 4 weeks, the knee joint was dissected and then stained with safranin O/fast green/iron hematoxylin.

[7] = cell pellet, 100, 200 or 300 μM, 28 days

Chain of SIK3 (Q9Y2K2 whole entry, species assumed): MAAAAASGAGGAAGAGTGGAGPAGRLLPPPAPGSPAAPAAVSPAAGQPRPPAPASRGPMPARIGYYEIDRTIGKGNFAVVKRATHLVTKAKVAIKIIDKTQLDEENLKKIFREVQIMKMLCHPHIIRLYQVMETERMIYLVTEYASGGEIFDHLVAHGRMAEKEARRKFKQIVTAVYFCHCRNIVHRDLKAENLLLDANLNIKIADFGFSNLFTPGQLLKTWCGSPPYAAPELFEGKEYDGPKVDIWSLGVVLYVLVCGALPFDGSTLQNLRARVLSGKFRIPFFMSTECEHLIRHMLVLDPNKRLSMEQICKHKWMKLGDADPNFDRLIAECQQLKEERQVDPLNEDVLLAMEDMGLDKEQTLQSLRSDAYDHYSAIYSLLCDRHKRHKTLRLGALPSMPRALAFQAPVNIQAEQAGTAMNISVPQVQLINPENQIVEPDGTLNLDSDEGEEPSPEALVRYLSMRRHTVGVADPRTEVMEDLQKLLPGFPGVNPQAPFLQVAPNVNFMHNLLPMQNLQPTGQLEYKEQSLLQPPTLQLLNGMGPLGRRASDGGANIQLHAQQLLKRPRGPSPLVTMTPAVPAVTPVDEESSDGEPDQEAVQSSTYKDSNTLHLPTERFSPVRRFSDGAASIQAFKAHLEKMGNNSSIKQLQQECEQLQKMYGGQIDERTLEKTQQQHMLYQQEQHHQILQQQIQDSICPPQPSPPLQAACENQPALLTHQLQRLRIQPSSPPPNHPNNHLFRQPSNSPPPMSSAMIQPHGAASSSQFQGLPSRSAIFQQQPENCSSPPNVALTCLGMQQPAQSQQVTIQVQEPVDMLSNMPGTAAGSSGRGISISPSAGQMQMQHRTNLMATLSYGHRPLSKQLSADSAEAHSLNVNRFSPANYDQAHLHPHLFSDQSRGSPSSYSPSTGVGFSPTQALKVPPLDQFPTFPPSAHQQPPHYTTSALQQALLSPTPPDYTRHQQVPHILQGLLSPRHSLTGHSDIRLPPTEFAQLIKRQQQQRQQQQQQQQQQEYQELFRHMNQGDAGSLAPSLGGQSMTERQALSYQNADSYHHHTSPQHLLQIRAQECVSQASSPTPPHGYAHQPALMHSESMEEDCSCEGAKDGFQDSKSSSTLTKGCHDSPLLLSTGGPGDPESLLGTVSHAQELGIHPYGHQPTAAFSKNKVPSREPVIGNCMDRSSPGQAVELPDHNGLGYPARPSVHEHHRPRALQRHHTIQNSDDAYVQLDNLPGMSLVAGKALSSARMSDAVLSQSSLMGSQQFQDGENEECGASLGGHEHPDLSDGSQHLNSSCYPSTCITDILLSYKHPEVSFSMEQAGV

COCCc1c(C)c(O)c2c(c1C)C(=O)C(C)(C)C2 [14-O-methyl-onitin, 14-O-methylonitin]
SIK3 inhibitory activity (induced activity of CRTC2) (SIK3): highly active than pterosin B

COCCc1c(C)cc2c(c1C)C(=O)C(OC)C2 (stereo not shown) [14-O-methyl-pterosin G, 14-O-methylpterosin G]
SIK3 inhibitory activity (induced activity of CRTC2) (SIK3): highly active than pterosin B

Cc1c(O)c2c(c(C)c1CCCl)C(=O)C(C)(C)C2 [14-chloro-onitin, 14-deoxy-14-chloroonitin]
SIK3 inhibitory activity (induced activity of CRTC2) (SIK3): highly active than pterosin B

Cc1cc2c(c(C)c1CCO)C(=O)C(C)C2 (stereo not shown) [extracted pterosin B, pterosin B]
mRNA amount of COL1A1 relative to GAPDH (human chondrocytes [1]): decreased | mRNA amount of COL10A1 relative to GAPDH (human chondrocytes [1]): decreased | number of hypertrophic chondrocytes [2]: decreased | safranin O-stained area [2]: increased | BrdU-positive cell number ([2]; BrdU 8 hours before collection): increased | safranin O staining intensity [3]: increased with increasing concentration | safranin O staining intensity (human chondrocytes [4]): increased | amount of Col2a1 mRNA relative to Gapdh [5, 7]: increased with increasing concentration | amount of Col10a1 mRNA relative to Gapdh [5, 7]: decreased with increasing concentration | Findings of medial femoral epicondyle ([6]; 300 μM into left knee articular cavity, one line per mouse (No. 4-7)): No apparent abnormalities; also recorded: Moderate osteoarthritis | Findings of medial femoral epicondyle ([6]; 900 μM into left knee articular cavity, one line per mouse (No. 8-11)): No apparent abnormalities; also recorded: Moderate osteoarthritis

Cc1c(O)c2c(c(C)c1CCO)C(=O)C(C)(C)C2 [onitin]
SIK3 inhibitory activity (induced activity of CRTC2) (SIK3): highly active than pterosin B

Cc1cc2c(c(C)c1CCO)C(=O)C(C)C2 (stereo not shown) [pterosin B]
SIK3 inhibitory activity (induced activity of CRTC2) (SIK3): slightly inhibit | area of the articular cartilage on the medial femoral epicondyle ([6]; 300 μM or 900 μM intra-articular): increased with increasing concentration

COCCc1c(C)cc2c(c1C)C(=O)C(C)(C)C2 [pterosin I]
SIK3 inhibitory activity (induced activity of CRTC2) (SIK3): highly active than pterosin B

Cc1cc2c(c(C)c1CCO)C(=O)C(C)(C)C2 [pterosin Z]
SIK3 inhibitory activity (induced activity of CRTC2) (SIK3): highly active than pterosin B | mRNA amount of Col10a1 relative to Gapdh [5]: decreased

Cc1cc2c(c(C)c1CCO)C(=O)C(C)C2 (stereo not shown) [synthesized pterosin B, pterosin B]
mRNA amount of ACAN relative to GAPDH (human chondrocytes [1]): increased | mRNA amount of COL2A1 relative to GAPDH (human chondrocytes [1]): increased | mRNA amount of COL11A2 relative to GAPDH (human chondrocytes [1]): increased | mRNA amount of SOX9 relative to GAPDH (human chondrocytes [1]): increased | mRNA amount of Col10a1 relative to Gapdh [5]: decreased
